Consider 62 compounds from ChEMBL document CHEMBL1201862, “PubChem BioAssay data set” (2004).

“And” between values parts separate entries of the source, which are not always exact repeats. Identical values can stand only once. The source made the active and inactive calls.

The target in one assay is Cytochrome P450 2D6 (Homo sapiens, UniProt P10635).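 Also: CYP2D6 member of a cytochrome P450 panel assay.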
A short description of assay [1]: Luminescence Cell-Based Dose Retest to Confirm Inhibitors of Cancer Stem Cells. [Related pubchem assays (depositor defined):AID2717, AID2721]. The format is functional. Conditions: Homo sapiens.
For another assay, the target named is Cytochrome P450 2C9 (Homo sapiens, UniProt P11712).
Chain of Cytochrome P450 2C9 (P11712 whole entry): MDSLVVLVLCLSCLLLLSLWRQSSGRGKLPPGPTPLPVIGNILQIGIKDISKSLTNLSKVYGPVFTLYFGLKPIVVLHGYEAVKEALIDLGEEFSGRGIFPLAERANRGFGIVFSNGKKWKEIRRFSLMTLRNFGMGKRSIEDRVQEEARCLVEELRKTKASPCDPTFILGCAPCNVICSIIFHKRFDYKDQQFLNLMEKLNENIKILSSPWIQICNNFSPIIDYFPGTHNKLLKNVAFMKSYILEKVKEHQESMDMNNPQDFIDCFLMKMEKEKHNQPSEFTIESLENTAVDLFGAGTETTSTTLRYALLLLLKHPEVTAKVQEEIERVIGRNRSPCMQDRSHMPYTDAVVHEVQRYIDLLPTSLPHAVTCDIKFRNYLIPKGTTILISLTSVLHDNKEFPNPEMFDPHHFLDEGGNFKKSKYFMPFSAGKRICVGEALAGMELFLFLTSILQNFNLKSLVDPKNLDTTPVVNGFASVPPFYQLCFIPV
The next assay has as its target T1, Cytochrome P450 1A2 (Homo sapiens, UniProt P05177).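 Also: PubChem cytochrome P450 panel assay, CYP1A2 panel member.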
T1 sequence (P05177 whole entry): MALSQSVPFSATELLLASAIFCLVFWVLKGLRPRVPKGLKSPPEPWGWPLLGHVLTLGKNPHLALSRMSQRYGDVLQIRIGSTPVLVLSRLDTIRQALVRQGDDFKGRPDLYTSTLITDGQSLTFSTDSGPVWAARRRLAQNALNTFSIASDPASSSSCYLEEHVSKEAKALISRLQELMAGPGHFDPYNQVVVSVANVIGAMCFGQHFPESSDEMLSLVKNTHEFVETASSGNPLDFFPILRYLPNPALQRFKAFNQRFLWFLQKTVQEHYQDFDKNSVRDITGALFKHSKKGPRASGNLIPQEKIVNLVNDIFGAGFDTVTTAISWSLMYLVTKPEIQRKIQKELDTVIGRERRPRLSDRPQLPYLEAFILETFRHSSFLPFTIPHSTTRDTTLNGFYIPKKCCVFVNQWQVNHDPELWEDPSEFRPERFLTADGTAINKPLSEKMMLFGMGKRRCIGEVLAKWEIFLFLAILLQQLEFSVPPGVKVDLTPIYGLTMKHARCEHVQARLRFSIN

Another assay relates to INS1. As to the kind of experiment: beta cell apoptosis inhibitors, cytokine rescue, dose response, luminescence, retest (AID 449756).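 Also: cell death triggered by IL-1 beta plus TNF-alpha plus IFN-gamma mixture; protective hits raise ATP signal compared with cytokine alone wells.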 Particulars: Rattus norvegicus. The format is functional, cell-based.
Assay [2] is described as follows: inhibitors of intracellular T. cruzi replication, confirmation, NIH3T3 host cells, beta-gal luminescence (AID 2044).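 Also: intracellular parasites grown in NIH/3T3 mouse fibroblasts as host cells; luminescent beta-galactosidase reporter signal from transgenic T. cruzi replicating inside host cells; inhibitors lower the luminescence signal.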 It counts as functional, cell-based.
A short description of assay [3]: cytotoxicity toward NIH3T3 fibroblasts, dose response, counter-screen, cell-based, ATP luminescence, mouse fibroblasts (AID 2010).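 Also: cells exposed to compound for about 90 hours before reading.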 The format is functional.

Chain of Cytochrome P450 2D6 (P10635 whole entry): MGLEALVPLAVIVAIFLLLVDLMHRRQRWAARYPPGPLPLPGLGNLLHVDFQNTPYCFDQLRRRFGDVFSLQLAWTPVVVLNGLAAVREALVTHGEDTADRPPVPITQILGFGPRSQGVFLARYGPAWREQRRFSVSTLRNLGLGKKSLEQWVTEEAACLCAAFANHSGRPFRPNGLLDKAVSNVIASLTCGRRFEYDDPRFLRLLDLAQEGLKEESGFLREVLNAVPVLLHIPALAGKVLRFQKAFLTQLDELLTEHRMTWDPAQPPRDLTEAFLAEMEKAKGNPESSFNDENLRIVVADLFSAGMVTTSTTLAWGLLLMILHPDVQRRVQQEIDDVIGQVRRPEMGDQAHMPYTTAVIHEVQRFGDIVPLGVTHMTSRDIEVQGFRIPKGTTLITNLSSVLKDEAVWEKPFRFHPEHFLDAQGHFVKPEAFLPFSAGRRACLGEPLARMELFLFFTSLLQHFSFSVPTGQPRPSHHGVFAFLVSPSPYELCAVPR

For orientation: AC50 means the concentration giving half of the maximal activity seen. As for `COc1ccc(-n2nnnc2SCC(=O)Nc2ccccc2)cc1`, the half-maximal activity concentration (AC50) at Cytochrome P450 2D6 is 2.51 µM (inconclusive). On to `COc1cc2c(cc1NC(=O)c1cccc(S(=O)(=O)N(C)C)c1)oc1ccccc12`, for which the AC50 in assay [1] was 2.54 µM (active).

In the case of `C=C[C@@H]1c2cccc(C)c2N(S(=O)(=O)c2ccc(C)cc2)[C@H](c2ccc(OC(C)=O)cc2)C1(C#N)C#N`, the concentration at half-maximal activity (AC50) in assay [1] is 5.13 µM (active). Take `CCC(=O)Nc1ccccc1C(=O)OCC(=O)c1cccc2ccccc12`: at Cytochrome P450 2D6, the AC50 was 0.0891 µM (inconclusive). `COc1cccc(C2=NOC(C(=O)Nc3cccnc3)C2)c1` (centres undefined): the AC50 at Cytochrome P450 2C9 is 25.1 µM (inconclusive).

For the compound `CS(=O)(=O)Nc1cccc(-c2cncnc2NCc2ccccc2)c1`, at Cytochrome P450 2D6, the AC50 is 20 µM (inconclusive). `[O-][S+](Cc1ccc(Br)cc1)Cc1nnc(SCc2ccc(Cl)cc2)n1-c1ccccc1` (centres undefined): the AC50 on Cytochrome P450 1A2 was 25.1 µM (inconclusive); at Cytochrome P450 2D6, 12.6 µM (inconclusive). As for `Cc1cc(C)c(OCC(O)CNC(C)(C)C)c(C)c1` (centres undefined), in the assay on INS1, the AC50 is > 120 µM (inactive). As to `CC(C)=C[C@H]1[C@@H](C(=O)OCc2cc3c(cc2Cl)OCO3)C1(C)C`, the AC50 is 3.16 µM (inconclusive) at Cytochrome P450 2C9, 0.794 µM (inconclusive) at Cytochrome P450 1A2 and 5.01 µM (inconclusive) on Cytochrome P450 2D6. As for `CCN1C(=O)C(CC(=O)Nc2ccc(F)cc2)N(CCCN2CCN(c3ccc(F)cc3)CC2)C1=S` (centres undefined), in assay [1], the AC50 is 3.1 µM (active). Turning to `Sc1nnc(C2CCCCC2)n1/N=C/c1cccs1`, the AC50 is 31.6 µM (inconclusive) on Cytochrome P450 2C9 and 2 µM (inconclusive) on Cytochrome P450 1A2.

With `CN1CCN(S(=O)(=O)c2cc([N+](=O)[O-])ccc2N2CCCCCC2)CC1`, the AC50 at Cytochrome P450 1A2 is 25.1 µM (inconclusive). For the compound `Cc1cccc(NC(NC(=O)c2cccnc2)C(Cl)(Cl)Cl)c1` (centres undefined), the AC50 on Cytochrome P450 1A2 is 22.4 µM (inconclusive).

As for `COc1ccc(-n2c(S)nnc2CNC(=O)c2ccc(S(=O)(=O)N3CCCC3)cc2)cc1`, at Cytochrome P450 2C9, the concentration at half-maximal activity (AC50) is 20 µM (inconclusive). Consider `O=C1C=C(c2ccc(F)cc2OCc2ccccc2)C[C@@H](c2ccc(F)cc2)C1`, for which, in assay [1], the AC50 is 0.964 µM (active).

For the compound `CN(C)C(=O)c1ccc(-c2nc(-n3ccnc3)c3ccccc3n2)cc1`, on Cytochrome P450 1A2, the AC50 is 20 µM (inconclusive).

For the compound `Cc1ccc(-n2c(C)cc(C(=O)CSc3n[nH]c(N)n3)c2C)cc1`, the AC50 on Cytochrome P450 2C9 was 6.31 µM (inconclusive).

By EC50 is commonly meant the concentration needed to bring the measured effect to its halfway point. Regarding `O=C(COc1ccc(F)cc1Cl)Nc1cc(S(=O)(=O)N2CCOCC2)ccc1N1CCCCC1`, the values for the EC50 in assay [2] and in assay [3] were 2.56 µM (active) and > 60 µM (not active), respectively. The like results for `CC1CCN(C(=O)C(=O)c2cn(CC(=O)N3CCCCCC3)c3ccccc23)CC1` were, in that order, 1.26 µM (active) and > 60 µM (not active). For `CC(Nc1nc(N2CCCCC2)nc2ccccc12)c1ccccc1` (centres undefined), the EC50 in assay [2] is 0.773 µM (active); in assay [3], 9.37 µM (active). `COC(=O)c1ccc(NC(=O)CCN2CCN(Cc3ccccc3)CC2)cc1`: the EC50 in assay [2] was 0.123 µM (active); in assay [3], > 60 µM (inconclusive). With `O=C(NCCOCCOCCNC(=O)c1cccnc1)c1cccnc1`, the AC50 in the assay with INS1 is 2.55 µM (active). Same read-out and setting: next, `Cc1cc2c(NCCc3ccccc3)ncnc2s1`: 1.98 µM (active). As for `C=CCN1C(=O)CN=C1Nc1ccccc1`, the AC50 is 0.0708 µM (inconclusive) on Cytochrome P450 2C9 and 28.2 µM (inconclusive) at Cytochrome P450 1A2. For the compound `O=C(CSc1ncnc2c1nnn2Cc1ccc(F)cc1)NC1CCCC1`, the EC50 is 3.93 µM (active) in assay [2] and > 30 µM (not active) in assay [3]. In the case of `O=C(NCc1cccs1)c1cc(-c2ccncc2)nc2ccc(Br)cc12`, the values for the EC50 in assay [2] and in assay [3] were 2.66 µM (active) and > 60 µM (not active), respectively.

Consider `CCN(CC)c1ccc(S(=O)(=O)N2CCCCC2)cc1NC(=O)C1=COCCO1`, for which the EC50 in assay [2] is 7.54 µM (active); in assay [3], > 60 µM (not active). With `CCOc1cc(N2CCOCC2)c(OCC)cc1NC(=O)c1ccc2ccccc2n1`, the EC50 in assay [2] was 2.63 µM (active); in assay [3] it was 7.58 µM (active).

With `COc1ccc(Sc2ccc(-c3nc4cnccn4c3NC3CCCCC3)cc2OC)cc1`, in assay [1], the AC50 is 2.93 µM (active). The same measure, in the same setting: as for `CCCOc1ccc(-c2nc(N3CCN(CC)CC3)c3ccccc3n2)cc1`, the figure is 5.57 µM (active); as for `CCn1c(N2CCN(S(=O)(=O)c3ccc(F)cc3)CC2)nc2ccccc21`, > 195 µM (inactive). For the compound `O=c1c(CCc2ccccc2)nc2cnc(N3CCOCC3)nc2n1Cc1cccs1`, the AC50 on Cytochrome P450 2C9 is 3.16 µM (inconclusive). In the case of `Cc1ccc(-c2nc3cc(Br)cnc3nc2-c2ccc(C)cc2)cc1`, the EC50 in assay [2] is 2.68 µM (active); in assay [3], > 60 µM (not active). In the case of `CCN(CC)S(=O)(=O)c1ccc(N2CCN(c3ccccc3OC)CC2)c(N)c1`, the concentration at half-maximal activity (AC50) with INS1 was 3.55 µM (active).

Consider `COc1ccccc1NS(=O)(=O)c1cc(NC(=O)Nc2ccc(Cl)cc2Cl)ccc1N1CCCCC1`, for which the EC50 in assay [2] is 1.58 µM (active). Take `NC(=NCc1ccccc1)NC(=O)c1nc(Cl)c(N)nc1N` [BENZAMIL]: the AC50 on Cytochrome P450 1A2 was 12.6 µM (inconclusive) and 10 µM (inconclusive). Turning to `O=[N+]([O-])c1cccc(S(=O)(=O)N2CCC(c3nc(-c4ccncc4)no3)CC2)c1`, the 50% effective concentration (EC50) in assay [2] is 1.85 µM (active); in assay [3], > 30 µM (not active).

On to `CSc1cccc(NC(=S)N(CCCN2CCCC2)Cc2cccn2Cc2ccc(Cl)cc2)c1`, for which the values for the EC50 in assay [2] and in assay [3] were 2.25 µM (active) and > 60 µM (not active), respectively. Consider `O=C(NCC1CCCCC1)c1cc2ccccc2cc1O`, for which the AC50 in assay [1] was 5.19 µM (active).

For `Cc1cnc(NC(=O)CSc2ccc(Cl)cc2)s1`, the AC50 at Cytochrome P450 2C9 was 20 µM (inconclusive). Consider `CCOc1ccccc1N1CCN(c2ncnc3scc(-c4ccc(OC)cc4)c23)CC1`, for which the EC50 in assay [2] was 2.44 µM (active); in assay [3] it was > 60 µM (not active).

With `O=C(c1ccco1)N1CCC[C@@]2(CCN(c3cccc(-c4ccccc4)c3)C2)C1`, the AC50 at Cytochrome P450 2D6 was 25.1 µM (inconclusive). As to `O=C(/C=C\NCC(=O)c1ccccc1)c1ccc(F)cc1`, the AC50 on Cytochrome P450 2C9 is 22.4 µM (inconclusive); on Cytochrome P450 2D6, 15.8 µM (inconclusive).

For `COc1ccccc1/C=C(/CC(=O)NCc1ccc2c(c1)OCO2)c1nc2ccccc2s1`, the EC50 in assay [2] is 2.19 µM (active); in assay [3] it was > 60 µM (not active).

As to `c1cc(CN2CCCCC2)cc(OCCCNc2nc3ccccc3s2)c1` [ZOLANTIDINE], the AC50 at Cytochrome P450 1A2 was 31.6 µM (inconclusive) and 15.8 µM (inconclusive). The same measure, in the same setting: next, `O=C(Oc1ccccc1)N1CCC2(CCN(Cc3ccncc3)CC2)CC1`: 25.1 µM (inconclusive). For `CCCCCCSc1cc(-c2nc3ccc(C)cn3c2NCCCC)ccc1OC`, the AC50 in assay [1] was 5.12 µM (active); in the assay on INS1, 7.09 µM (active). `CN(C)c1ncc2ncc(=O)n(CCc3ccccc3)c2n1`: at Cytochrome P450 2D6, the AC50 was 39.8 µM (inconclusive). Turning to `O=C(Cn1nnc(-c2ccccc2)n1)OCc1ccccc1`, on Cytochrome P450 2C9, the AC50 was 8.91 µM (inconclusive). Regarding `CC1(C)CC(NCCN2CCN(C3=CC(=C(C#N)C#N)CC(C)(C)C3)CC2)=CC(=C(C#N)C#N)C1`, the EC50 was 1.31 µM (active) in assay [2] and > 60 µM (not active) in assay [3]. `S=C(Nc1cccc(Br)c1)N1CCn2cccc2C1c1cccnc1` (centres undefined): the EC50 was 1.78 µM (active) in assay [2] and > 60 µM (not active) in assay [3]. With `COc1cccc(-c2nc(NCc3ccccc3OC)c3ccccc3n2)c1`, the results for the AC50 on Cytochrome P450 2C9 and on Cytochrome P450 2D6 were 1 µM (inconclusive) and 10 µM (inconclusive), respectively. For `Fc1ccc(CN2CCCN(Cc3nc(-c4ccc5c(c4)OCO5)no3)CC2)cc1`, the EC50 in assay [2] was 0.103 µM (active); in assay [3], > 60 µM (inconclusive). Regarding `O=P(Oc1ccccc1)(Oc1ccccc1)N1CCN(c2ccc(F)cc2)CC1`, in the assay with INS1, the AC50 was 19.4 µM (active). Take `C[N+]1(C)CCC(=C(c2ccccc2)c2ccccc2)CC1`: the AC50 on Cytochrome P450 2D6 is 12.6 µM (inconclusive). Regarding `O=C1c2ccccc2C(=O)C1c1ccccc1` [PHENINDIONE], the AC50 at Cytochrome P450 1A2 was 15.8 µM (inconclusive). For the compound `CCOC(=O)C1(Cc2cccc(OC)c2)CCCN(Cc2c(C)nn(C(C)C)c2C)C1` (centres undefined), the EC50 in assay [2] is 1.19 µM (active); in assay [3], > 60 µM (not active). In the case of `COc1cccc(Cn2c(=O)c(CCc3ccccc3)nc3cnc(N4CCNCC4)nc32)c1`, the half-maximal activity concentration (AC50) is 12.6 µM (inconclusive) on Cytochrome P450 1A2 and 31.6 µM (inconclusive) on Cytochrome P450 2D6. Regarding `CCC(=O)c1cc(F)c(N2CCN(S(=O)(=O)c3ccc(C)cc3)CC2)cc1C`, the EC50 was 2.68 µM (active) in assay [2] and > 60 µM (not active) in assay [3]. `FC(F)(F)c1cc(CN2CCCC3(CCNCC3)C2)cc(C(F)(F)F)c1`: the AC50 at Cytochrome P450 2D6 is 12.6 µM (inconclusive).

As to `CC(=O)c1c(C)n(CC(=O)NCc2ccco2)c2ccccc12`, the AC50 in the assay with INS1 was > 260 µM (inactive). Consider `CN1CC[C@H](CN2c3ccccc3Sc3ccccc32)C1`, for which the AC50 at Cytochrome P450 1A2 is 5.01 µM (inconclusive).
